According to paper PMC3763640, “Effect of Co-Administration of Rivaroxaban and Clopidogrel on Bleeding Time, Pharmacodynamics and Pharmacokinetics: A Phase I Study” (Pharmaceuticals, 2012):

Assays:
healthy male subjects [1] = assay: Bleeding time test (Surgicutt incision, forearm); format: in vivo, human; conditions: rivaroxaban 15 mg single dose, clopidogrel 300 mg day 1 + 75 mg day 2, combination with rivaroxaban on day 2; for least squares-mean relative change in bleeding time compared with baseline: 4 h after last drug administration
Experimental: Bleeding time tests were performed in accordance with the protocol reported by the International Committee on Standardization of the Bleeding Time. Bleeding time measurements depend on the method and on who carries out the procedure; therefore, results vary greatly between studies. To reduce variability, one study nurse was specifically trained in the procedure of the test before this study. The same study nurse carried out all measurements at all time points for each subject. […] A sphygmomanometer on the upper arm was inflated to 40 mmHg for 30 seconds before the incision was made and maintained at 40 mmHg until the end of the procedure. The bleeding time incision was made by placing a Surgicutt Adult® (ITC, Edison, NJ, USA) device (used in accordance with the recommendations of the manufacturer, as specified in the package insert) gently against the forearm, perpendicular (vertical) to the elbow crease. […] The bleeding time was measured in seconds as the total duration of blood flow from the wound. […] Statistical evaluations were performed with the use of the SAS® software package version 8.2 at the Department of Global Pharmacometrics (Bayer HealthCare AG, Wuppertal, Germany). […] Student's paired t tests were used to compare treatments for these parameters, and 90% confidence intervals (CIs) for the difference were calculated.

Factor Xa = target: T1, Factor Xa (Homo sapiens, UniProt P00742); assay: Factor Xa activity in plasma after dosing; format: in vivo; conditions: for median value of Factor Xa activity: 4 h after administration, rivaroxaban 15 mg
T1 construct: Blood samples were centrifuged to obtain plasma samples, which were then frozen and stored below −15 °C until analysis; from tissue; host or cells: plasma from blood samples of the healthy male study subjects
T1 sequence (P00742 235-488 limits assumed): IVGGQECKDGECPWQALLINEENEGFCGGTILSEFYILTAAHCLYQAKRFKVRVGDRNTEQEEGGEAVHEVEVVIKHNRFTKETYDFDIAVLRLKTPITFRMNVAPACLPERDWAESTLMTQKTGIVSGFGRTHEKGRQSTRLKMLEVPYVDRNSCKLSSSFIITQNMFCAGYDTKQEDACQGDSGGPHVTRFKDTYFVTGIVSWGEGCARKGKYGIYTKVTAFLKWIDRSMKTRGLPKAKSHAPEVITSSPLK
T1 sequence (P00742 41-179 partner limits assumed): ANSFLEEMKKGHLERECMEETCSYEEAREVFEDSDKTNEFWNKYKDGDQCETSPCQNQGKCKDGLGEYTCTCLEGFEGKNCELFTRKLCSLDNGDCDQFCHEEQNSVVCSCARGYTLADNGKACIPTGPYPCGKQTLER
Experimental: (§1) The effects of rivaroxaban and clopidogrel on Factor Xa activity, prothrombin time (PT), activated partial thromboplastin time (aPTT) and HepTest were assessed, as described previously. Factor Xa activities above 0.1 IU/mL (the lower limit of quantification) were determined with a precision of 3.8–6.6% and an accuracy of 96–114%. […] When only clopidogrel was administered (treatment A), blood samples were taken after 4, 8, 24 and 48 h. Blood samples were centrifuged to obtain plasma samples, which were then frozen and stored below −15 °C until analysis.

[2] = Prothrombin time (PT) in plasma after dosing; format: in vivo, human
Experimental: as §1

[3] = Activated partial thromboplastin time (aPTT) in plasma after dosing; format: in vivo, human; conditions: combination compared with rivaroxaban alone
Experimental: as §1

[4] = HepTest in plasma after dosing; format: in vivo, human; conditions: combination compared with rivaroxaban alone
Experimental: as §1

platelet aggregation = assay: ADP-stimulated platelet aggregation (Born method); format: in vivo, human; conditions: for platelet aggregation, median relative change from baseline: 4 h after drug administration
Experimental: A clopidogrel response screening period preceded the study (Figure 1). […] The initial dose of 300 mg clopidogrel was chosen for this study because this loading dose is generally used in patients with ACS [24]. A second dose of 75 mg clopidogrel was selected because this is the standard daily dose recommended by guidelines for use in patients with a variety of relevant conditions, including atrial fibrillation, stroke and ACS [24]. […] This method is based on the turbidimetric determination of cell suspensions. […] Measurement was performed at 650 nm. The individual response of changes of platelet aggregation to baseline was determined using 29 µM ADP in addition to an optimized individual activating regimen using ADP. […] Statistical evaluations were performed with the use of the SAS® software package version 8.2 at the Department of Global Pharmacometrics (Bayer HealthCare AG, Wuppertal, Germany). […] Student’s paired t tests were used to compare treatments for these parameters, and 90% confidence intervals (CIs) for the difference were calculated.

[5] = test system: GPIIb/IIIa, P-selectin and annexin V; assay: Platelet activation markers by flow cytometry; format: in vivo, human; conditions: 4 h after drug administration, relative to baseline
Experimental: To assure uniformity of assays and to minimize sample manipulation, blood samples were mixed gently and processed without delay. Platelet-rich plasma was prepared by slow centrifugation, and platelets were labelled with monoclonal antibodies against GPIIb/IIIa (CD41a), […] (CD62p) and annexin V protein. Samples were analysed using a COULTER® EPICS® XLTM flow cytometer (Beckman Coulter, Inc.; Brea, CA, USA). The average immunofluorescence of the total population or the fraction of activated events was determined and compared with individual control samples before treatment.

healthy male subjects [6] = assay: Safety and tolerability; format: in vivo, human; conditions: single dose of 15 mg rivaroxaban
Experimental: Safety and tolerability were assessed subjectively and objectively. Subjective assessment was obtained by asking the subjects non-leading questions about the occurrence of any adverse events or by spontaneous reporting of adverse events. Adverse events were classified according to their degree of severity. Objective tolerability was evaluated by monitoring cardiovascular parameters including heart rate, blood pressure and ECG parameters. In addition, blood tests, clinical chemistry, urine test and drug screening were part of the objective assessment.

[7] = individually optimized concentration of ADP
[8] = 12 h after administration of 15 mg rivaroxaban

SMILES	least squares-mean relative change in bleeding time compared with baseline (healthy male subjects [1])	median value of Factor Xa activity (Factor Xa)	effect on Factor Xa activity (Factor Xa; combination compared with rivaroxaban alone)	effect on PT ([2]; compared with baseline, combination compared with rivaroxaban monotherapy)	effect on aPTT [3]	effect on HepTest [4]	platelet aggregation, median relative change from baseline (platelet aggregation; 29 µM ADP)	platelet aggregation, median relative change from baseline (platelet aggregation; [7])	number of subjects identified as clopidogrel responders (more than 40% inhibition of platelet aggregation compared with baseline) (platelet aggregation; of 27 healthy male subjects, single dose of 300 mg clopidogrel, 24 h after administration)	effect on platelet activation markers [5]	bleeding time, overall least squares-means (healthy male subjects [1]; clopidogrel responders)	Factor Xa inhibition, return to values within % of baseline (Factor Xa; [8])	PT, return to values within % of baseline [2, 8]	effect on platelet aggregation (platelet aggregation; optimized ADP or fixed 29 µM ADP)	safety and tolerability (healthy male subjects [6])
COC(=O)[C@H](c1ccccc1Cl)N1CCc2sccc2C1 [clopidogrel]	2.0 fold	0.9 U/mL	no effect	did not change	did not affect	did not affect	0.340	0.249	14	pronounced decrease	–	–	–	–	–
O=C(NC[C@H]1CN(c2ccc(N3CCOCC3=O)cc2)C(=O)O1)c1ccc(Cl)s1 [rivaroxaban]	1.1 fold	0.57 U/mL	–	–	–	–	1.1	0.9	–	no relevant effect	1.13 times baseline	≤ 10%	≤ 10%	not affected	safe and well tolerated
